“Also recorded” adds a separate entry of the source. Where no end group is shown, it is not given here. [ ]: non-standard residue; d: D form. hCys = N[C@@H](CCS)C(=O)O
What was measured:
[1] = test system: metastatic disease; settings: human, in vivo
Description: Livant et al., “The PHSCN Sequence As An Anti-Invasive For Human Prostate Carcinoma Cells And As An Anti-Tumorigenic And Anti-Metastatic Agent For Rat Prostate Cancer” Cancer Research 60:309-320 (2000). […] In another embodiment, however, PHSCN (SEQ ID NO:86) peptide may also induce apoptosis. Furthermore, thrice-weekly PHSCN (SEQ ID NO:86) peptide intravenous doses (0.1 to 0.5 mg/kg) prevent cancer progression in metastatic ovarian cancer and metastatic prostate cancer patients in the Phase I clinical trial, for over a 6 to 10 month period.

[2] = test system: DU 145 human prostate carcinoma; settings: mouse, in vivo; cited from earlier work
[3] = test system: MatLyLu (MLL) cells; experiment: SU-ECM invasion assay, rat MatLyLu (MLL) prostate carcinoma cells; assay type: cell-based; settings: 10% FCS, varying concentrations
Description: Adult Strongylocentrotus purpuratus sea urchins were obtained from Pacific BioMarine, and their embryos were cultured to the early pluteus stage in artificial sea water at 15° C. SU-ECM were prepared from them by treatment with nonionic detergent and strerilized by dilution in the appropriate media. […]
(§1) Invasion assays were coded and scored blindly by microscopic examination under phase contrast at 200- and 400-fold magnification. Each cell contacting an SU-ECM was scored for its position relative to the exterior or interior surfaces. […] The minimum viability of the cells in each assay was always ascertained at the time of assay by determining the fraction of spread, adherent cells on the bottom of each well scored.
(§2) An invasion frequency is defined as the fraction of cells in contact with basement membranes which were located in their interiors at the time of assay. […] Invasion frequencies were determined multiple times for each cell type assayed. For each type of cell assayed the mean and standard deviation of the invasion frequencies were calculated. […]

[4] = test system: neonatal, human fibroblasts; experiment: SU-ECM basement membrane invasion by fibroblasts; assay type: cell-based; settings: with or without serum as stated
Excerpt: Since, during wound reepithelialization, keratinocytes migrate through the connective tissue of the provisional matrix to “wall off” portions of the wound, as well as through the adjacent stroma, it is not surprising that they are also stimulated to migrate through the matrix of SU-ECM invasion substrates by the PHSRN (SEQ ID NO: 1) sequence. […]
as §1, §2

[5] = molecular target: T1, immobilized α5β1 integrin (UniProt P08648 42-1049; P05556 21-798); experiment: saturation binding of PHSCNGGK(biotin) to immobilized α5β1 integrin, read as optical density at 490 nm (FIG. 11)
T1 construct: also called α5β1 integrin receptor; α5β1 integrin fibronectin receptor
T1 sequence (P08648 42-1049, chain 1 of 2): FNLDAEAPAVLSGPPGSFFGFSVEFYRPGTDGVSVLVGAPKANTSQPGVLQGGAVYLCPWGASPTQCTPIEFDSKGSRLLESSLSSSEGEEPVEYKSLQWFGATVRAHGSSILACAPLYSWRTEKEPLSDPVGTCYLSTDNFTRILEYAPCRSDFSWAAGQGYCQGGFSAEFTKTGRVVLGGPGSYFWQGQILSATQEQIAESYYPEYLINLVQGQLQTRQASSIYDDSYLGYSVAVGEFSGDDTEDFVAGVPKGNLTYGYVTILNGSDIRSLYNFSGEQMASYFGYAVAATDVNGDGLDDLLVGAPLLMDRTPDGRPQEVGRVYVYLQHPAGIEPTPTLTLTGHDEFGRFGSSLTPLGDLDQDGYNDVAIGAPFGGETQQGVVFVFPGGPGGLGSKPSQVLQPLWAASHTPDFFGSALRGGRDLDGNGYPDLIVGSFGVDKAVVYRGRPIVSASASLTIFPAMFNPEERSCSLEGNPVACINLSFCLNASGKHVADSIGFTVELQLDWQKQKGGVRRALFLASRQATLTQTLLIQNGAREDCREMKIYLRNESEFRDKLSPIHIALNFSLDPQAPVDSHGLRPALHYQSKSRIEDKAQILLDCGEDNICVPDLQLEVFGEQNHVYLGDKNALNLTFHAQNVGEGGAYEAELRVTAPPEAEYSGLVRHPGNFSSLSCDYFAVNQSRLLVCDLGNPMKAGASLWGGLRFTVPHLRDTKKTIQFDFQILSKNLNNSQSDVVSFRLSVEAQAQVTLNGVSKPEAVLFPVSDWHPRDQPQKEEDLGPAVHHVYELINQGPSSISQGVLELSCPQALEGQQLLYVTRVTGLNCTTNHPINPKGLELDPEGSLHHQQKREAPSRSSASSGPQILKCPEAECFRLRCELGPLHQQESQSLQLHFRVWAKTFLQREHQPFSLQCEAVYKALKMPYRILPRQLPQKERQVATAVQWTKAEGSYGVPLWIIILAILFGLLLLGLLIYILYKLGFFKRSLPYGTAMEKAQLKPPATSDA
T1 sequence (P05556 21-798, chain 2 of 2): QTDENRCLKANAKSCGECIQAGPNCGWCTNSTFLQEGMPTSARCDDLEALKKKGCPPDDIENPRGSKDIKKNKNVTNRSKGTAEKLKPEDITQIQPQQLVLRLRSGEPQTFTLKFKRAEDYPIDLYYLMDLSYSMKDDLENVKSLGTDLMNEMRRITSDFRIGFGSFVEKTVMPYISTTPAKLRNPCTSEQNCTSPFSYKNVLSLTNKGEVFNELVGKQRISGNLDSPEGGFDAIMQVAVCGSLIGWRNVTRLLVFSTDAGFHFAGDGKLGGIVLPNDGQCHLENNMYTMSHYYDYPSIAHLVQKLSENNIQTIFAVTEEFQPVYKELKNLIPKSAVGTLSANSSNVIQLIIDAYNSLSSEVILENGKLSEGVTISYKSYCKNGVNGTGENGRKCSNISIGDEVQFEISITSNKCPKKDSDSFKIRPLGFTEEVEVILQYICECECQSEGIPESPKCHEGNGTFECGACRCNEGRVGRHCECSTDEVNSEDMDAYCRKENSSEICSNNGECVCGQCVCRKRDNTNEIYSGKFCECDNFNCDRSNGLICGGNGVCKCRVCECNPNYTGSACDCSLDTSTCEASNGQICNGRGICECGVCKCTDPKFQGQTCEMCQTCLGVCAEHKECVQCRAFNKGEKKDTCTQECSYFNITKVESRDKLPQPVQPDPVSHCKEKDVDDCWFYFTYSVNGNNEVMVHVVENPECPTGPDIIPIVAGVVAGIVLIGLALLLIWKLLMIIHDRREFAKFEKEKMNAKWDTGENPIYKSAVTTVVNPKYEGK

Molecule: Ac-PHSCN-NH2 (N-terminus and C-terminus assumed) [PHSCN, Pro-His-Ser-Cys-Asn]
- total treatment-emergent serious adverse events [1]: 11
- tolerability of treated mice [2]: no obvious loss of vigor or difficulty in healing

Molecule: PHS(hC)N: homo-cysteine containing peptide (PHS[hCys]N)
- inhibition of serum-induced invasion [3]: substantially inhibits invasion at lower concentrations; also recorded: completely inhibits invasion at higher concentrations

Molecule: intact plasma fibronectin: purified bovine plasma fibronectin (Sigma)
- fibroblast invasion of SU-ECM basement membranes [4]: fails to stimulate fibroblast invasion

Molecule: Ac-PHSCNGG-{K(biotin)-NH2} (also: further groups not given here, also called biotinylated PHSCN peptide) [Ac-PHSCNGGK(biotin)-NH2]
- Kd [5]: 272 nM

Reference: patent US20060078535A1, “Anticancer compounds and methods” (The Regents of the University of Michigan, priority 2004, published 2006)
